Toxic doses and inconclusive results are not listed. No stated cut-off is given here; in the data, active means T/C of 150% or more; inactive means T/C below 125%.
Tested on: L1210 leukemia ip in BDF1 mice, survival T/C
Assay: NCI In Vivo Anticancer Drug Screen. Data for tumor model L1210 Leukemia (intraperitoneal) in B6D2F1 (BDF1) mice
Details: endpoint: mean survival time, higher = longer survival
In short: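 Survival endpoint. Drug-treated group vs vehicle group, expressed as T divided by C. Tumor passaged by transplantation.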

[1] = dose: 100.0 mg/kg/injection, schedule: Q01DX001 (ip), vehicle: Klucel (hydroxypropylcellulose) (HPC)
[2] = dose: 100.0 mg/kg/injection, schedule: Q04DX003 (ip), vehicle: Klucel (hydroxypropylcellulose) (HPC)
[3] = dose: 200.0 mg/kg/injection, schedule: Q04DX003 (ip), vehicle: Klucel (hydroxypropylcellulose) (HPC)
[4] = dose: 400.0 mg/kg/injection, schedule: Q04DX003 (ip), vehicle: Klucel (hydroxypropylcellulose) (HPC)
[5] = dose: 100.0 mg/kg/injection, schedule: Q01DX009 (ip), vehicle: saline with Tween-80
[6] = dose: 200.0 mg/kg/injection, schedule: Q01DX009 (ip), vehicle: saline with Tween-80
[7] = dose: 400.0 mg/kg/injection, schedule: Q01DX009 (ip), vehicle: saline with Tween-80
[8] = dose: 100.0 mg/kg/injection, schedule: Q01DX001 (ip), vehicle: saline
[9] = dose: 200.0 mg/kg/injection, schedule: Q01DX001 (ip), vehicle: saline
[10] = dose: 400.0 mg/kg/injection, schedule: Q01DX001 (ip), vehicle: saline
[11] = dose: 100.0 mg/kg/injection, schedule: Q04DX003 (ip), vehicle: saline with Tween-80
[12] = dose: 200.0 mg/kg/injection, schedule: Q04DX003 (ip), vehicle: saline with Tween-80
[13] = dose: 400.0 mg/kg/injection, schedule: Q04DX003 (ip), vehicle: saline with Tween-80
[14] = dose: 50.0 mg/kg/injection, schedule: Q01DX001 (ip), vehicle: carboxymethylcellulose (CMC)
[15] = dose: 100.0 mg/kg/injection, schedule: Q01DX001 (ip), vehicle: carboxymethylcellulose (CMC)
[16] = dose: 200.0 mg/kg/injection, schedule: Q01DX001 (ip), vehicle: carboxymethylcellulose (CMC)
[17] = dose: 400.0 mg/kg/injection, schedule: Q01DX001 (ip), vehicle: carboxymethylcellulose (CMC)
[18] = dose: 100.0 mg/kg/injection, schedule: Q04DX003 (ip), vehicle: saline
[19] = dose: 200.0 mg/kg/injection, schedule: Q04DX003 (ip), vehicle: saline
[20] = dose: 400.0 mg/kg/injection, schedule: Q04DX003 (ip), vehicle: saline
[21] = dose: 100.0 mg/kg/injection, schedule: Q04DX002 (ip), vehicle: Klucel (hydroxypropylcellulose) (HPC)
[22] = dose: 200.0 mg/kg/injection, schedule: Q04DX002 (ip), vehicle: Klucel (hydroxypropylcellulose) (HPC)
[23] = dose: 100.0 mg/kg/injection, schedule: Q01DX009 (ip), vehicle: Klucel (hydroxypropylcellulose) (HPC)
[24] = dose: 200.0 mg/kg/injection, schedule: Q01DX009 (ip), vehicle: Klucel (hydroxypropylcellulose) (HPC)
[25] = dose: 400.0 mg/kg/injection, schedule: Q01DX009 (ip), vehicle: Klucel (hydroxypropylcellulose) (HPC)

Measured: T/C

CC(=O)Oc1cc(Cl)c(Cl)cc1Cl
inactive: dose: 100.0 mg/kg/injection, schedule: Q01DX009 (ip), vehicle: saline 100 % of control | dose: 100.0 mg/kg/injection, schedule: Q04DX002 (ip), vehicle: gum acacia 102 % of control | dose: 200.0 mg/kg/injection, schedule: Q01DX009 (ip), vehicle: saline 100 % of control | dose: 200.0 mg/kg/injection, schedule: Q04DX002 (ip), vehicle: gum acacia 110 % of control | dose: 400.0 mg/kg/injection, schedule: Q01DX009 (ip), vehicle: saline 102 % of control | dose: 400.0 mg/kg/injection, schedule: Q04DX002 (ip), vehicle: gum acacia 94 % of control

c1ccc(Cc2[nH]nc(-c3ccccc3)c2N=Nc2ccccc2)cc1
inactive: [1] 94 % of control | [2] 103 % of control | dose: 200.0 mg/kg/injection, schedule: Q01DX001 (ip), vehicle: Klucel (hydroxypropylcellulose) (HPC) 94 % of control | [3] 103 % of control | dose: 400.0 mg/kg/injection, schedule: Q01DX001 (ip), vehicle: Klucel (hydroxypropylcellulose) (HPC) 91 % of control | [4] 100 % of control

NC(=O)N/N=C(/c1ccccc1)c1ccccn1
inactive: [5] 101 % of control | [6] 100 % of control | [7] 101 % of control

O=S(=O)(c1ccccc1)C(CC(S(=O)(=O)c1ccccc1)S(=O)(=O)c1ccccc1)S(=O)(=O)c1ccccc1
inactive: dose: 100.0 mg/kg/injection, schedule: Q04DX002 (ip), vehicle: saline with Tween-80 119 % of control | dose: 200.0 mg/kg/injection, schedule: Q04DX002 (ip), vehicle: saline with Tween-80 97 % of control | dose: 400.0 mg/kg/injection, schedule: Q04DX002 (ip), vehicle: saline with Tween-80 90 % of control

O=S(O)c1ccc2cc(O)c(S(=O)O)cc2c1
inactive: [8] 95 % of control | [5] 95 % of control | [9] 97 % of control | [6] 95 % of control | [10] 97 % of control | [7] 92 % of control

O=S(N=C(C(F)(F)F)C(F)(F)F)C(F)(F)F (stereo not drawn)
inactive: dose: 50.0 mg/kg/injection, schedule: Q01DX001 (ip), vehicle: Klucel (hydroxypropylcellulose) (HPC) 92 % of control | [1] 106 % of control

COC(=O)/C=C1/Nc2cc(Cl)c(OC)cc2C(=O)NC1=O
inactive: dose: 75.0 mg/kg/injection, schedule: Q04DX003 (ip), vehicle: other 91 % of control | dose: 150.0 mg/kg/injection, schedule: Q04DX003 (ip), vehicle: other 91 % of control

CCC(=O)c1ccc(N=Nc2c(N)nc(N)nc2N)cc1
inactive: [8] 110 % of control | [9] 94 % of control

OCC(O)C(O)C(O)C1SCCS1 (stereo not drawn)
inactive: [8] 103 % of control | [9] 106 % of control | [10] 104 % of control

CCOC(=O)CCC1(C(=O)OC)C(=O)CCCCC/C=C/1C(=O)OC (stereo not drawn)
inactive: [11] 99 % of control | [12] 101 % of control | [13] 106 % of control

COc1ccc(CN2CCCN(Cc3ccc(OC)cc3OC)C2c2cccc([N+](=O)[O-])c2O)c(OC)c1
inactive: [14] 104 % of control | [15] 98 % of control | [16] 110 % of control | [17] 98 % of control

CCOC(=O)C1C2c3ccccc3C(C1C(=O)OCC)[n+]1ccccc12 (stereo not drawn)
inactive: [18] 100 % of control | [19] 97 % of control | [20] 100 % of control

COP1(=O)C=C(C)CC1 (stereo not drawn)
inactive: [8] 95 % of control | [9] 95 % of control | [10] 95 % of control

Cc1ccc(S(=O)(=O)N/N=C/c2c(O)ccc3ccccc23)cc1
inactive: [5] 87 % of control | [11] 96 % of control | [6] 89 % of control | [12] 94 % of control | [7] 91 % of control | [13] 94 % of control

CCOc1ccccc1C1N2CCN(CC2)C(c2ccccc2OCC)N2CCN1CC2 (stereo not drawn)
inactive: [14] 100 % of control | [15] 100 % of control | [16] 100 % of control | [17] 105 % of control

O=C(c1ccco1)C(O)c1ccco1 (stereo not drawn)
inactive: [21] 96 % of control | [22] 104 % of control

CC(=O)O[C@@H]1CC[C@]2(C)C(=CC[C@@H]3C4CC5O[C@]6(CCC(C)CN6)C(C)C5[C@]4(C)CCC32)C1 (stereo partly drawn)
inactive: [21] 93 % of control | [22] 89 % of control | dose: 400.0 mg/kg/injection, schedule: Q04DX002 (ip), vehicle: Klucel (hydroxypropylcellulose) (HPC) 93 % of control

O=C1C=CC(=O)C2=C1C1c3ccccc3C2([N+](=O)[O-])c2ccccc21
inactive: [23] 100 % of control | [2] 105 % of control | [24] 92 % of control | [3] 97 % of control | [19] 97 % of control | [25] 100 % of control | [4] 102 % of control | [20] 102 % of control

O=C1CCCC2C1CCCC21OCCO1 (stereo not drawn)
inactive: [8] 96 % of control | [9] 96 % of control | [10] 96 % of control

c1cc(-n2nnc3cnccc32)ccn1
inactive: dose: 6.25 mg/kg/injection, schedule: Q04DX003 (ip), vehicle: saline 100 % of control | dose: 12.5 mg/kg/injection, schedule: Q04DX003 (ip), vehicle: saline 91 % of control | dose: 25.0 mg/kg/injection, schedule: Q04DX003 (ip), vehicle: saline 102 % of control | [18] 86 % of control

CCOc1ccc(NC(=O)Nc2cccc3ccccc23)cc1
inactive: [23] 98 % of control | [2] 86 % of control | [24] 94 % of control | [25] 86 % of control | [4] 92 % of control

C/C(=N\O)c1ccc2ccc3ccccc3c2c1
inactive: dose: 100.0 mg/kg/injection, schedule: Q01DX009 (ip), vehicle: saline sonified 105 % of control | [5] 101 % of control | [2] 103 % of control | dose: 200.0 mg/kg/injection, schedule: Q01DX009 (ip), vehicle: saline sonified 93 % of control | [6] 93 % of control | [3] 103 % of control | dose: 400.0 mg/kg/injection, schedule: Q01DX009 (ip), vehicle: saline sonified 94 % of control | [7] 95 % of control | [4] 115 % of control

CCCCS(=O)C1(CCC)OC1(c1ccccc1)c1ccccc1 (stereo not drawn)
inactive: dose: 100.0 mg/kg/injection, schedule: Q03DX002 (ip), vehicle: other 121 % of control | dose: 200.0 mg/kg/injection, schedule: Q03DX002 (ip), vehicle: other 102 % of control | dose: 400.0 mg/kg/injection, schedule: Q03DX002 (ip), vehicle: other 96 % of control

C[n+]1c(-c2ccc(Cl)c(Cl)c2)c2cc([N+](=O)[O-])ccc2c2ccccc21
inactive: [18] 95 % of control | [19] 93 % of control | [20] 97 % of control

N#C/C(N)=C(\C#N)N=CC=N/C(C#N)=C(/N)C#N
inactive: dose: 12.5 mg/kg/injection, schedule: Q01DX009 (ip), vehicle: Klucel (hydroxypropylcellulose) (HPC) 103 % of control | dose: 25.0 mg/kg/injection, schedule: Q01DX009 (ip), vehicle: Klucel (hydroxypropylcellulose) (HPC) 103 % of control | dose: 50.0 mg/kg/injection, schedule: Q01DX009 (ip), vehicle: Klucel (hydroxypropylcellulose) (HPC) 103 % of control | [1] 95 % of control

O=P(N(CCCl)CCCl)(N1CCCCC1)N1CCCCC1
inactive: dose: 50.0 mg/kg/injection, schedule: Q01DX Z (ip), vehicle: saline 86 % of control | dose: 100.0 mg/kg/injection, schedule: Q01DX Z (ip), vehicle: saline 88 % of control | dose: 200.0 mg/kg/injection, schedule: Q01DX Z (ip), vehicle: saline 90 % of control

CCC(CC)(CCN)c1ccccc1
inactive: [14] 90 % of control | [15] 93 % of control

Reference: PubChem BioAssay AID248 (DTP/NCI, 2004)
